Source: patent US20210069295A1, “GALECTINS CONTROL MTOR IN RESPONSE TO ENDOMEMBRANE DAMAGE AND PROVIDE A MECHANISM AND TARGET FOR THE TREATMENT OF AUTOPHAGY-RELATED DISEASES” (STC. UNM, priority 2017, published 2021)
Peptide text beside a SMILES is read from it.

Test system: mTOR
Assay: mTOR localization relative to LAMP2-positive lysosomes (HC and confocal microscopy)
Format: cell-based
Procedure: (A) Dose-response analysis of mTOR activity in HEK293T cells treated with glycyl-L-phenylalanine 2-naphththylamide (GPN) in full medium for 1 h. mTOR activity was monitored by inununoblotting analysis of S6K1 (T389) and ULK1 (S757) phosphorylation (phosphorylated S6K (T389) and ULK1 (S757) relative to total S6K and ULK1, respectively). (B) Analysis of mTOR activity (as in A) after GPN washout. HEK293T cells were treated with 100 μM GPN for 1 h followed by 1 h washout in full medium. Data, means±SEM (n=3), **p<0.01, ANOVA. (C) Analysis of mTOR activity (as in A) in HEK293T cells treated with increasing doses of silica in full medium for 1 h. (D) HEK293T cells were treated with lysosomal damaging agents (LLOMe, Leu-Leu-OMe) for 1 h in full medium and status of acidified organelles assessed by quantifying LysoTracker Red DND-99 puncta using automated high-content imaging and analysis (HC). None-treated cells were as control (Ctrl). White masks, algorithm defined cell boundaries (primary objects); yellow masks, computer-identified LysoTracker Red puncta (target objects). Data, means±SEM, n≥3 independent experiments (500 primary objects counted per well; ≥5 wells/sample per each experiment), **p<0.01, ANOVA. (E) Analysis of mTOR activity in primary human macrophages treated with GPN. Human peripheral blood monocyte derived macrophages were treated with 100 μM GPN in full medium or starved in EBSS for 1 h, and mTOR activity measured as in A. None-treated cells were as control (Ctrl). (F) Quantification by HC of overlaps between mTOR and LAMP2 (representative images shown in FIG. S1D) in HeLa cells treated with lysosomal damaging agents for 1 h in full medium. Data, means±SEM, n≥3 independent experiments (500 primary objects counted per well; ≥5 wells/sample per each experiment) **p<0.01, ANOVA. (G) Immunofluorescence confocal microscopy visualization of mTOR localization relative to LAMP2-positive lysosomes. […] (H) Analysis of TFEB nuclear translocation in HeLa cells treated with 100 μM GPN in full medium for 1 h, and the nuclear translocation of TFEB was measured by HC (Nuclei, Hoechst 33342, blue pseudocolor; TFEB red fluorescence, Alexa-568). […] White masks, computer algorithm-defined cell boundaries (primary objects); pink masks, computer-identified nuclear TFEB based on the average intensity of Alexa-568 fluorescence. Data, means±SEM, n≥3 independent experiments (500 primary objects counted per well; ≥5 wells/sample per each experiment), **p<0.01, ANOVA. (I) HeLa cells were treated as indicated in full medium for 1 h, and LC3 puncta were quantified by HC. […] Data, means±SEM, n≥3 independent experiments (500 primary objects counted per well; ≥5 wells/sample per each experiment), **p<0.01, ANOVA. […]

NCC(=O)N[C@@H](Cc1ccccc1)C(=O)Nc1ccc2ccccc2c1 [GPN, glycyl-L-phenylalanine 2-naphththylamide] (HELM PEPTIDE1{G.F.[c1ccc2cc(N[*:1])ccc2c1]}$$$$V2.0)
mTOR localization in cells expressing RagBQ99L (HEK293T stably expressing RagBQ99L, 100 μM GPN 1 h): remained on lysosomes | mTOR localization (lysosomes vs cytosol, overlap with LAMP2) (HeLa cells, 1 h full medium): translocated from lysosomes to the cytosol
